Test results from patent publication US20130243928A1 (priority 2007, published 2013).

Experiment: Distribution (dissolution) of resveratrol in an aliquot of wine with heating
Assay type: physicochemical
Details: heating up to about 40° C., no added alcohol or other solvent
Excerpt: The size, temperature and heating time for a batch of resveratrol concentrate will vary depending on how much resveratrol is needed to be added. […] Temperature can be measured by placing a thermometer in the batch of wine and timing the process.

Q: Which “amount of resveratrol that can be distributed in an aliquot of wine” value does the source give for `Oc1ccc(/C=C/c2cc(O)cc(O)c2)cc1` [resveratrol, trans-3,5,4′-trihydroxystilbene] here?
A: The value was “about 1.25 (wt/vol)”.
